The source of these data is patent US8258118B2, “4-pyridinone compounds and their use for cancer” (Bristol-Myers Squibb Company, priority 2008, dated 2012).

One series relates to GTL-16 cells. Description: GTL-16 gastric carcinoma proliferation assay (MTS). The conditions noted are these: Homo sapiens, 72 h, 0.5% fetal calf serum. Format: cell-based. The protocol:
Inhibition of GTL-16 cell growth was assessed by a MTS assay using a CELLTITER 96® Aqueous Non-Radioactive Proliferation Assay kit from Promega. The kit is composed of solutions of a novel tetrazolium compound (3-(4,5-dimethylthiazol-2-yl)-5-(3-carboxymethoxyphenyl)-2-(4-sulfophenyl)-2H-tetrazolium, inner salt; MTS) and an electron coupling reagent (phenazine methosulfate, PMS). In this colormetric assay, the conversion of MTS into aqueous, soluble formazan is accomplished by dehydrogenase enzymes found in metabolically active cells. The quantity of formazan product as measured by its absorbance at 490 nm is directly proportional to the number of living cells in culture.
GTL-16 cells were inoculated into 96 well microtiter plates in 0.5% fetal calf serum and incubated at 37° C., 5% CO2, 95% air and 100% relative humidity for 24 h prior to addition of a compound. At the time of drug treatment, one plate of the cell line was processed using the above kit to represent a measurement of the cell population at the time of drug addition. Following drug treatment, the plates were incubated for an additional 72 h before processing, and measuring cell populations. Each compound was tested at 8 different concentrations in triplicate, as was the untreated control sample. Growth inhibition of 50% (IC50) is calculated by analysis of the data in Excel that uses a 4 parameter logistic equation with data fitted using the Levenburg Marquardt algorithm

Another series addresses T1, GST-Met kinase (Homo sapiens, UniProt P08581).
T1 construct: made in house
Description: Met kinase assay. It counts as biochemical. The method, then: Incubation mixtures employed for the Met kinase assay contain a baculovirus expressed GST-Met kinase, the synthetic substrate polyGlu:Tyr, (4:1), ATP, ATP-γ-^33P and buffer containing Mn^+2, DTT, BSA, and Tris. Reactions were incubated for 60 minutes at 30° C. and stopped by the addition of cold trichloroacetic acid (TCA) to a final concentration 8%. TCA precipitates were collected onto GF/C UniFilter plates (Packard Instrument Co., Meriden, Conn.) using a FILTERMATE® universal harvester (Packard Instrument Co., Meriden, Conn.) and the filters are quantitated using a TopCount 96/384-well liquid scintillation counter (Packard Instrument Co., Meriden, Conn.). Dose response curves were generated to determine the concentration required to inhibit 50% of kinase activity (IC50). Compounds were dissolved at 10 mM in dimethyl sulfoxide (DMSO) and evaluated at ten concentrations, each in duplicate. The final concentration of DMSO in the assay is 1.7%. IC50 values were derived by non-linear regression.

The target in another series is VEGFR-2 (Homo sapiens, UniProt P35968). The series is described as follows: VEGFR-2 kinase assay. It counts as biochemical. The method, then: Incubation mixtures employed for the VEGFR-2 assay contain the synthetic substrate poly glu/tyr, (4:1), ATP, ATP-γ-^33P and buffer containing Mn^+2, DTT, BSA, and Tris buffer. The reaction is initiated by addition of enzyme and after 60 minutes at room temperature is terminated by the addition of 30% TCA to a final concentration of 15% TCA. Inhibitors are brought to 10 mM in 100% DMSO. Assays are prepared in a 96 well format in quadruplicate. Compounds are diluted 1:500 in 100% DMSO and then 1:10 in water for a final DMSO concentration of 10%. Aliquots (10 μL) are added to rows B-H in a 96 well format of 10% DMSO. The compound (20 μl) is added to row A at a concentration 5 fold higher than running conditions. Aliquots (10 μL) are transferred to each row followed by six serial dilutions with mixing, and at row F 10 μL are discarded. Row G is a control with no compound and row H is no compound and no enzyme control. Enzyme and substrate are delivered using a Tomtec Quadra station.
Plates are covered with sticky plate tops, incubated at 27° C. for 60 minutes, and then acid precipitated with TCA for 20 minutes on ice. […] Activity is determined by quantitating the incorporated radioactivity using a Packard TopCount Microplate Scintillation Counter following the addition of Microscint-20 cocktail into each dried well of the UniFilter microplates.

For series [1], the system named is GTL-16 gastric carcinoma xenografts. The series is described as follows: In vivo efficacy, GTL-16 human gastric tumor xenograft model. The note with it: for overt toxicity: administered once daily for 14 days, any of the dose levels. The protocol:
N-(4-(2-Amino-3-chloropyridin-4-yloxy)-3-fluorophenyl)-5-(4-fluorophenyl)-4-oxo-1,4-dihydropyridine-3-carboxamide (Example 1) and (3-(4-(2-amino-3-chloropyridin-4-yloxy)-3-fluorophenylcarbamoyl)-5-(4-fluorophenyl)-4-oxopyridin-1(4H)-yl)methyl dihydrogen phosphate (Example 2) were evaluated for in vivo efficacy against the GTL-16 human gastric tumor xenograft model. Example 2 is a prodrug of Example 1.

Series [2] concerns U87 glioblastoma xenografts. Description: In vivo efficacy, U87 glioblastoma xenograft model. The note with it: 25 mg/kg, dosed orally once daily for 14 days. The protocol:
Example 1 was also tested in the U87 glioblastoma model, a Met driven tumor based on an HGF autocrine mechanism of Met activation.

T1 sequence (P08581 25-1390): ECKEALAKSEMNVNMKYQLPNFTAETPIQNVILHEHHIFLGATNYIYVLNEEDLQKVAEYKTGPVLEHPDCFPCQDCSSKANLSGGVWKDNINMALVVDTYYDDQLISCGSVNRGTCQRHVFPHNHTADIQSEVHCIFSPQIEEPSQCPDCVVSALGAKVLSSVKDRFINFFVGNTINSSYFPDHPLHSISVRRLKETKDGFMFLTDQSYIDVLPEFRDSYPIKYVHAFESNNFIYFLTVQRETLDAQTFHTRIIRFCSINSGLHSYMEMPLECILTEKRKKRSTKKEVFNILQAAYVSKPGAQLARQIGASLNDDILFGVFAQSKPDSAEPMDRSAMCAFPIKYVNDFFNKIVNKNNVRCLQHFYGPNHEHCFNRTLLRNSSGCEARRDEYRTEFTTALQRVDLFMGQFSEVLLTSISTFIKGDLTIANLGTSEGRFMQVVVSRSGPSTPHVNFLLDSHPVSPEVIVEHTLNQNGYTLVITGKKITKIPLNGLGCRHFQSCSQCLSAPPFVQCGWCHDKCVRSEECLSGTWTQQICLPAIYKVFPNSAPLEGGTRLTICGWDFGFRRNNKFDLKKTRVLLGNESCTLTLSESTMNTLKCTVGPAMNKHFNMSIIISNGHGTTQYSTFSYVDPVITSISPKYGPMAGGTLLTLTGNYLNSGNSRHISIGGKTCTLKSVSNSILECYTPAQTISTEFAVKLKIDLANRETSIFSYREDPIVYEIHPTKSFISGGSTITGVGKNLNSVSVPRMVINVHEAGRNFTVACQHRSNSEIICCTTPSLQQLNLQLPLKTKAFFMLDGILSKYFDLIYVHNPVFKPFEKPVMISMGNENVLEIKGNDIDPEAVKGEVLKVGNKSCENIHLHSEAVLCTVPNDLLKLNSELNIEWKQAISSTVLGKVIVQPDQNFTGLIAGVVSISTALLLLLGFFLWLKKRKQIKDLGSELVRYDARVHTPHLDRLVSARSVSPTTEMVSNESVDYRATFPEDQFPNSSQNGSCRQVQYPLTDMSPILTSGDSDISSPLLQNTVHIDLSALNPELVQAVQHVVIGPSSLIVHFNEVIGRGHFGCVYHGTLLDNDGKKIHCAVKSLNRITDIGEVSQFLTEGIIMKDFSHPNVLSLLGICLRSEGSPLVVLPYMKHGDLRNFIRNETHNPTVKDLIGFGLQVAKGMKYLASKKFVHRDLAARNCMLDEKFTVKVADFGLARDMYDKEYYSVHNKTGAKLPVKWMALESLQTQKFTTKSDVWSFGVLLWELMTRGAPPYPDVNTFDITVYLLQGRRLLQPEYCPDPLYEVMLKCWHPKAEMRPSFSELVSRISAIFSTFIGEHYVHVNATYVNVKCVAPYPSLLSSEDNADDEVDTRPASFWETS
VEGFR-2, sequence (P35968 20-1356): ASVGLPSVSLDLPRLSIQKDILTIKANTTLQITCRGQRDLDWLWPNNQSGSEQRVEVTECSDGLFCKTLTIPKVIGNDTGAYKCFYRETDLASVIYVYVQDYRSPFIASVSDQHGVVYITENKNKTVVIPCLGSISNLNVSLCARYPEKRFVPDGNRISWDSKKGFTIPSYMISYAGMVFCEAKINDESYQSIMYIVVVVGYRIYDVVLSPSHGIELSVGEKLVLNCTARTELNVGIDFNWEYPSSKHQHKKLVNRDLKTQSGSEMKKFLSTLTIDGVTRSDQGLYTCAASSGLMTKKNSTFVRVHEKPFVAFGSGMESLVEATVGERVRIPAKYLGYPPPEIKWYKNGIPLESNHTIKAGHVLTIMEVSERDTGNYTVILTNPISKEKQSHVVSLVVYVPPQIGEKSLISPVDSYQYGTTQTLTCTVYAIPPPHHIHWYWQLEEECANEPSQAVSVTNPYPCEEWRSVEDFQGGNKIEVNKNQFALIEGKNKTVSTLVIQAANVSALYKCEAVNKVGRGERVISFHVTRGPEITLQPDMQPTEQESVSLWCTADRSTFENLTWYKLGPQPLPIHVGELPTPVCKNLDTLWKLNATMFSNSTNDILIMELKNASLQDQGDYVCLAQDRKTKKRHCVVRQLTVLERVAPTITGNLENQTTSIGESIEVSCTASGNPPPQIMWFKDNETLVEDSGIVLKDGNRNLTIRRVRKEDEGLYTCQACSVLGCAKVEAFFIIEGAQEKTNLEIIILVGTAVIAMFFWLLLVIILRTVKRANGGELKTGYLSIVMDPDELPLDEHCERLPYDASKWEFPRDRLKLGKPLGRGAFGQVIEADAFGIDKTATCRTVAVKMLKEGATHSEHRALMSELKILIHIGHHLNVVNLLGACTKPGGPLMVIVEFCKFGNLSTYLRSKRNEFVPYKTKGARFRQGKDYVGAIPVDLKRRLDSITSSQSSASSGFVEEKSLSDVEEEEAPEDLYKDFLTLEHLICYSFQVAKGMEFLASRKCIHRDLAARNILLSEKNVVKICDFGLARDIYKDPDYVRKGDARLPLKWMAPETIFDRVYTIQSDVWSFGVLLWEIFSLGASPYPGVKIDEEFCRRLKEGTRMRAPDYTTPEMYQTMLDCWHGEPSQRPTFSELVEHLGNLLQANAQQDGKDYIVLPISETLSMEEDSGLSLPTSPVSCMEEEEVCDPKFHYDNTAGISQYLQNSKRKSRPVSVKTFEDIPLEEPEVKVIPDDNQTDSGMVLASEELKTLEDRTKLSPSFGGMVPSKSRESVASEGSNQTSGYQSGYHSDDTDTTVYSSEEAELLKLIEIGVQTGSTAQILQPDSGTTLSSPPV

One may read the IC50 as the concentration that inhibits the measured activity by half. Read a low IC50 as higher potency. For the compound `Nc1cc(Oc2ccc(NC(=O)c3c[nH]cc(Cc4ccccc4)c3=O)cc2F)ccn1` [Compound A, N-(4-(2-Aminopyridin-4-yloxy)-3-fluorophenyl)-5-benzyl-4-oxo-1,4-dihydropyridine-3-carboxamide], the figures for the IC50 in the series on GTL-16 cells and on GST-Met kinase were 5400 nM and 160 nM, respectively.

As for `Nc1cc(Oc2ccc(NC(=O)c3cccn(-c4ccc(F)cc4)c3=O)cc2F)ccn1` [Compound B, N-(4-(2-Aminopyridin-4-yloxy)-3-fluorophenyl)-1-(4-fluorophenyl)-2-oxo-1,2-dihydropyridine-3-carboxamide], the IC50 in the series on GTL-16 cells came to 170 nM; against GST-Met kinase it was 4.8 nM; against VEGFR-2, 40 nM.

In the case of `Nc1nccc(Oc2ccc(NC(=O)c3c[nH]cc(-c4ccc(F)cc4)c3=O)cc2F)c1Cl` [Example 1, N-(4-(2-Amino-3-chloropyridin-4-yloxy)-3-fluorophenyl)-5-(4-fluorophenyl)-4-oxo-1,4-dihydropyridine-3-carboxamide], the “antitumor activity (tumor stasis)” value is given as “complete tumor stasis” in series [1] (25 mg/kg of Example 1, once daily for 14 days) and “complete tumor stasis” in series [2]. Also, the overt toxicity result in series [1] was “No overt toxicity”. Further, the IC50 in the series on GTL-16 cells worked out at 39 nM; against GST-Met kinase it was 1.7 nM; at VEGFR-2 it was 15 nM.

For the compound `Nc1nccc(Oc2ccc(NC(=O)c3cn(COP(=O)(O)O)cc(-c4ccc(F)cc4)c3=O)cc2F)c1Cl` [Example 2, (3-(4-(2-Amino-3-chloropyridin-4-yloxy)-3-fluorophenylcarbamoyl)-5-(4-fluorophenyl)-4-oxopyridin-1(4H)-yl)methyl dihydrogen phosphate], the “antitumor activity (tumor stasis)” value in series [1] (31.2 mg/kg of Example 2 (equimolar to 25 mg/kg Example 1), once daily for 14 days) is “complete tumor stasis”. The overt toxicity result in series [1] is listed as “No overt toxicity”.
